Assay: Solubility of the tested additives into diesel fuel

## CCCCN(CCO)CCO [N-butyldiethanolamine]
Table 1
  Maximum evaluated concentration of marker soluble into diesel fuel: <100 ppm
Table 2
  Maximum evaluated concentration of marker soluble into diesel fuel: <100 ppm
